Test results taken from PubChem BioAssay (NCI).
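Test compounds were applied to cells in 96-well plates for 48 hours at 5 doses. GI50: concentration for 50% inhibition of growth. The concentration for full growth arrest is given as TGI.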

Assays:
Test in all cases: growth of human tumour cells (NCI), 48 h
[1] = test system: OVCAR-3 ovarian
[2] = test system: HT29 colon
[3] = test system: SK-OV-3 ovarian
[4] = test system: ACHN renal
[5] = test system: OVCAR-8 ovarian
[6] = test system: OVCAR-4 ovarian
[7] = test system: RPMI-8226 leukemia
[8] = test system: PC-3 prostate
[9] = test system: TK-10 renal
[10] = test system: MDA-MB-435

SMILES	GI50 [1]	TGI [1]	GI50 [2]	TGI [2]	GI50 [3]	TGI [3]	GI50 [4]	TGI [4]	GI50 [5]	TGI [5]	GI50 [6]	TGI [6]	GI50 [7]	TGI [7]	GI50 [8]	TGI [8]	GI50 [9]	TGI [9]	GI50 [10]	TGI [10]
C=C1SC(=Nc2ccccc2Cl)N(C(=O)c2sc3ccccc3c2Cl)C12CCCCC2	6560 nM	93.4 µM	6710 nM	> 100 µM	13.9 µM	> 100 µM	4890 nM	> 100 µM	6620 nM	> 100 µM	7750 nM	> 100 µM	3810 nM	98.2 µM	4.51 µM	> 100 µM	15200 nM	> 100 µM	29.8 µM	> 100 µM
CCCCCCCC(=O)SCC/C=C/[C@@H]1CC(=O)NCc2nc(cs2)C2=N[C@@](C)(CS2)C(=O)N[C@@H](C(C)C)C(=O)N1	15 nM	0.806 µM	< 10 nM	0.0499 µM	0.0149 µM	0.14 µM	508 nM	12 µM	23.4 nM	16.7 µM	21.2 nM	> 100 µM	28.3 nM	> 100 µM	< 0.0125 µM	> 100 µM	17.5 nM	0.316 µM	< 0.01 µM	1.9 µM
Nc1nc(SCc2ccccc2Cl)cc(C(=O)O)n1		89.2 µM		> 100 µM		> 100 µM		> 100 µM		> 100 µM		> 100 µM		> 100 µM		> 100 µM		> 100 µM		> 100 µM
Cc1nc2ccccn2c1NC(=O)NNC(=S)Nc1ccc(F)cc1	> 100000 nM	> 100 µM	> 100000 nM	> 100 µM	> 100 µM	> 100 µM	> 100000 nM	> 100 µM	> 100000 nM	> 100 µM	> 100000 nM	> 100 µM	> 100000 nM	> 100 µM	> 100 µM	> 100 µM	> 100000 nM	> 100 µM	> 100 µM	> 100 µM
Nc1nc2cc(CC[C@H]3C[C@@H](n4ccc5c(N)ncnc54)[C@H](O)[C@@H]3O)ccc2cc1Br	10000 nM	26.1 µM	2460 nM	24.3 µM	13.4 µM	39.2 µM	12300 nM	28.5 µM	7730 nM	34.1 µM	2060 nM	19.1 µM	4920 nM	57.2 µM	11 µM	25.9 µM	12200 nM	26.3 µM	4.34 µM	18.4 µM
C=C1C(=O)O[C@H]2[C@H]1CC/C(COC(=O)OC/C1=C/CC[C@@]3(C)O[C@H]3[C@H]3OC(=O)[C@@H](CN(C)C)[C@@H]3CC1)=C\CC[C@@]1(C)O[C@@H]21	501 nM	1.7 µM	996 nM	2.47 µM	12.8 µM	25.4 µM	457 nM	1.69 µM	2310 nM	10.2 µM	1420 nM	3.1 µM	372 nM	1.94 µM	2.7 µM	7.89 µM	1180 nM	2.57 µM	1.81 µM	4.31 µM
C[C@H]1COCCN1c1cc(C2(S(=O)(=O)C3CC3)CC2)nc(-c2ccc(NC(=S)NCCO)cc2)n1	22 nM	11.7 µM	64.8 nM	> 60.4 µM	< 0.01 µM	0.0556 µM	70.5 nM	> 100 µM	51.1 nM	3.06 µM	15.9 nM	0.233 µM	< 12.5 nM	1.86 µM	< 0.013 µM	38.7 µM	14.8 nM	0.274 µM	0.0244 µM	1.19 µM
COc1ccc2c(c1OC)C(C(Cl)(Cl)Cl)N1CCc3cc4c(cc3C1=C2)OCO4 (stereo not given)		65.8 µM		68.4 µM		85.9 µM		65.1 µM		> 100 µM		69 µM		11.3 µM		> 100 µM		> 100 µM		27 µM
CC1(C)OC(=O)C(C#N)=C1C[n+]1ccccc1		> 10 µM		> 10 µM		> 10 µM		> 10 µM		> 10 µM		> 10 µM		> 10 µM		> 10 µM		> 10 µM		> 10 µM
